# Laboratory results from publication PMC4806491, “The milk-derived fusion peptide, ACFP, suppresses the growth of primary human ovarian cancer cells by regulating apoptotic gene expression and signaling pathways” (BMC Cancer, 2016).
# Like-named read-outs stand apart in the source and are kept apart here. Positions of bridges follow the written chain, without caps; N, C: chain ends. Residues, ends and D or L forms follow the SMILES beside them.
# Key:
# [1] = oil (octanol)/water partition coefficient; assay type: physicochemical; settings: pH 7, preliminary experiments
# [2] = system: primary ovarian cancer cells; settings: High dose 5×10^-3 g/L, 48 h
# Method: We utilized cDNA microarrays to observe the effect of ACFP on gene expression in primary ovarian cancer cells. Cells were treated with 0 (the vehicle group, as control), 5 × 10^6 g/L and 5 × 10^3 g/L ACFP, respectively, and cultured for 48 h at 37 °C in 5 % CO2. Cells were later digested and collected for total RNA extraction using Trizol. The RNA concentrations and purities were detected with a spectrophotometer. The experiments were performed in duplicate on a single total RNA preparation from the cells. Signal values were presented as the mean value of two replicate experiments. RNA samples were used to generate human whole genome expression profiling microarray (Yeli Bioscience Co., Ltd.; Shanghai, China). RNA was subsequently converted into digoxigenin-labeled complementary RNA and hybridized to a human genome microarray system (Human OneArray Microarray, from Phalanx Biotech Group, Taiwan). The chips were scanned by a GeeDom® LuxScan 10 K microarray scanner. LuxScan3.0 software was used to extract probe fluorescence signals and analyze images. Finally, the original data were processed by normalizing.
smiles,measurement,setting,value
CC[C@H](C)[C@@H]1NC(=O)[C@H](CO)NC(=O)[C@@H]2CCCN2C(=O)[C@H](C)NC(=O)CNC(=O)[C@H](CC(C)C)NC(=O)[C@H](CCCCN)NC(=O)[C@H](CCCCN)NC(=O)[C@H](CCSC)NC(=O)[C@H](CCCNC(=N)N)NC(=O)[C@H](Cc2c[nH]c3ccccc23)NC(=O)[C@H](CCC(N)=O)NC(=O)[C@H](Cc2c[nH]c3ccccc23)NC(=O)[C@H](CCCNC(=N)N)NC(=O)[C@H](CCCNC(=N)N)NC(=O)[C@@H](NC(=O)[C@H](CCCCN)NC(=O)[C@@H](N)Cc2ccccc2)CSSC[C@@H](C(=O)N[C@H](C(=O)N[C@@H](CCCNC(=N)N)C(=O)N[C@@H](CCCNC(=N)N)C(=O)N[C@@H](C)C(=O)N[C@@H](Cc2ccccc2)C(=O)NCC(=O)NCC(=O)NCC(=O)NCC(=O)N[C@@H](CO)C(=O)N2CCC[C@H]2C(=O)NCC(=O)N2CCC[C@H]2C(=O)N[C@H](C(=O)N2CCC[C@H]2C(=O)N[C@@H](CC(N)=O)C(=O)O)[C@@H](C)CC)C(C)C)NC(=O)[C@H]([C@@H](C)O)NC1=O [ACFP] (H-FKCRRWQWRMKKLGAPSITCVRRAFGGGGSPGPIPN-OH; disulfide 3-20; N-terminus and C-terminus assumed),logD,[1],-0.91
same,GTF2IP1 Ratio (ACFP/control),[2]; NM-002970,0.24
same,IGFBP5 Ratio (ACFP/control),[2]; NM-003488,0.23
same,MYLK Ratio (ACFP/control),[2]; NM-004638,0.23
same,NKX3-1 Ratio (ACFP/control),[2]; NM-004824,3.11
same,PLA2G5 Ratio (ACFP/control),[2]; NM-005322,0.46
same,POLH Ratio (ACFP/control),[2]; NM-005429,0.12
same,PSMA1 Ratio (ACFP/control),[2]; NM-005682,0.49
same,STAT5B Ratio (ACFP/control),[2]; NM-006777,2.03
same,STAT6 Ratio (ACFP/control),[2]; NM-006778,10.8
same,UPP1 Ratio (ACFP/control),[2]; NM-007378,0.42
same,TNFSF18 Ratio (ACFP/control),[2]; NM-008995,0.41
same,MAP4K4 Ratio (ACFP/control),[2]; NM-009448,0.41
same,BTF/BCLAF1 Ratio (ACFP/control),[2]; NM-009774,2.79
same,TMEFF1 Ratio (ACFP/control),[2]; NM-016522,7.91
same,RAB18 Ratio (ACFP/control),[2]; NM-022931,0.25
same,TCF/LEF1 Ratio (ACFP/control),[2]; NM-051176,0.35
same,PINX1 Ratio (ACFP/control),[2]; NM-054984,0.47
same,RINT-1 Ratio (ACFP/control),[2]; NM-060561,0.17
same,C17orf37 Ratio (ACFP/control),[2]; NM-084299,0.38
same,ZNF512 Ratio (ACFP/control),[2]; NM-084450,0.47
same,AKT1 Ratio (ACFP/control),[2]; NM_000207,0.27
same,ARHE Ratio (ACFP/control),[2]; NM_000390,3.39
same,BAG1 Ratio (ACFP/control),[2]; NM_000573,0.33
same,BAX Ratio (ACFP/control),[2]; NM_000581,6.35
same,BCL-xl Ratio (ACFP/control),[2]; NM_000598,0.19
same,C1QG Ratio (ACFP/control),[2]; NM_000714,2.68
same,CASP3 Ratio (ACFP/control),[2]; NM_000836,5.34
same,CCNB1 Ratio (ACFP/control),"[2]; NM_000891, cyclinB1",0.21
same,TNFRSF8 Ratio (ACFP/control),"[2]; NM_000943, first entry",3.22
same,TNFRSF8 Ratio (ACFP/control),"[2]; NM_000943, second entry",3.22
same,CDC25C Ratio (ACFP/control),[2]; NM_000995,0.32
same,CDKN1A Ratio (ACFP/control),[2]; NM_001026,6.58
same,CDKN1A/p21 Ratio (ACFP/control),"[2]; NM_001026, second entry",3.58
same,CKS2 Ratio (ACFP/control),[2]; NM_001164,8.95
same,DVL1 Ratio (ACFP/control),[2]; NM_001855,2.46
same,GRK4 Ratio (ACFP/control),[2]; NM_002868,0.37
same,GRK5 Ratio (ACFP/control),[2]; NM_002869,0.47
same,GRK6 Ratio (ACFP/control),[2]; NM_002870,0.26
same,GSTM4 Ratio (ACFP/control),[2]; NM_002948,2.72
same,GSTM5 Ratio (ACFP/control),[2]; NM_002949,4.84
same,IRF7 Ratio (ACFP/control),[2]; NM_003665,4.50
same,ITGA5 Ratio (ACFP/control),[2]; NM_003678,0.43
same,PKIA Ratio (ACFP/control),[2]; NM_005569,2.74
same,MAPK3/ERK1 Ratio (ACFP/control),[2]; NM_005595,0.35
same,MAPK8/JNK1 Ratio (ACFP/control),[2]; NM_005599,2.74
same,MAPK13/p38 delta Ratio (ACFP/control),[2]; NM_005603,3.04
same,PSMB8 Ratio (ACFP/control),[2]; NM_005696,3.24
same,TNFRSF1A Ratio (ACFP/control),"[2]; NM_007132, first entry",2.15
same,TNFRSF1A Ratio (ACFP/control),"[2]; NM_007132, second entry",2.08
same,ZNF12 Ratio (ACFP/control),[2]; NM_007559,3.66
same,BAT5 Ratio (ACFP/control),[2]; NM_007920,7.48
same,PABPN1 Ratio (ACFP/control),[2]; NM_008106,9.8
same,TNFRSF10B Ratio (ACFP/control),[2]; NM_008795,4.85
same,STK17B Ratio (ACFP/control),[2]; NM_009262,2.97
same,TRAF4 Ratio (ACFP/control),[2]; NM_009618,3.62
same,USP34 Ratio (ACFP/control),[2]; NM_009736,4.52
same,GOLGA5 Ratio (ACFP/control),[2]; NM_009950,2.95
same,SUI1 Ratio (ACFP/control),[2]; NM_010209,9.85
same,SPINT2 Ratio (ACFP/control),[2]; NM_010653,10.25
same,PIK3R5 Ratio (ACFP/control),[2]; NM_023533,0.44
same,CARD10 Ratio (ACFP/control),[2]; NM_029775,4.32
same,FLJ39616 Ratio (ACFP/control),[2]; NM_051275,2.53
same,GNG12 Ratio (ACFP/control),[2]; NM_055970,8.30
same,BCORL1 Ratio (ACFP/control),[2]; NM_063035,0.25
same,CARD14 Ratio (ACFP/control),[2]; NM_079092,3.06
same,BCL2L14 Ratio (ACFP/control),[2]; NM_079370,2.57
same,FLJ13848 Ratio (ACFP/control),[2]; NM_079829,9.45
same,SNARK Ratio (ACFP/control),[2]; NM_081788,3.11
same,C1QTNF6 Ratio (ACFP/control),"[2]; NM_114904, first entry",6.26
same,C1QTNF6 Ratio (ACFP/control),"[2]; NM_114904, second entry",6.26
